Results taken from PMC7955127, “Preclinical small molecule WEHI-7326 overcomes drug resistance and elicits response in patient-derived xenograft models of human treatment-refractory tumors” (Cell Death & Disease, 2021).

Experiments:
24 T TNBC PDX = test: TNBC PDX model 24T; assay type: in vivo, NOD-SCID-IL2Rγc–/– mice
Experimental: Cohorts of about 30 female mice were seeded with thawed single cell suspensions of early passage human breast tumors (passage 2 or 3). Briefly, 150,000–250,000 cells were resuspended in 10 µl of transplantation buffer (50% fetal calf serum, 10% of a 0.04% trypan blue solution and 40% PBS) and growth-factor-reduced Matrigel [BD] at a ratio of 3:1, and injected into the cleared mammary fat pads of 3- or 4-week-old NOD-SCID-IL2Rγc–/– female mice. Mice were monitored for tumor development three times weekly and tumor size measured using digital Vernier calipers. Tumor volume was estimated by measuring the minimum and maximum tumor diameters using the formula: (minimum diameter)^2 x (maximum diameter)/2. Once tumors arose, mice were randomized into treatment arms. Treatment was initiated when the tumor volume reached 80–120 mm^3. Randomization and tumor measurements were managed using the Study Director software (v 3.0, studylog). Mice were sacrificed at the first measurement where tumor volume exceeded 600 mm^3, or if their health deteriorated for reasons other than disease progression or drug toxicity (censored event).
Mice were treated with either docetaxel (10 mg/kg; i.p.; once), cisplatin (4 mg/kg; i.p.; once) or WEHI-7326 (20 mg/kg; twice a week (Monday and Thursday); i.v.). Vehicle treated mice were administered with the vehicle for WEHI-7326. Docetaxel was resuspended at 2 mg/ml in PBS:Tween-80:ethanol = 90:5:5 (v/v/v). WEHI-7326 was resuspended at 2 mg/ml in saline.

[1] = Intravenous pharmacokinetics and tolerability in mice; assay type: in vivo, male Swiss Outbred mice
Experimental: Briefly, intravenous pharmacokinetics and systemic exposure of WEHI-7326 were assessed in non-fasted male Swiss Outbred mice. WEHI-7326 was administered via intravenous bolus injection (10 ml/kg dose volume) and blood samples were collected at 1, 2, 5, 15 and 30 min and 1, 2, 4, 7.5 and 24 h post-dose (n = 2 mice per time point). A maximum of two samples were obtained from each mouse, with samples being taken either via submandibular bleed (approximately 120 μl; conscious sampling) or terminal cardiac puncture (0.6 ml; while mice were anaesthetized using inhaled Isoflurane). Once collected, blood samples were centrifuged immediately, supernatant plasma was removed, and stored in −20 °C until analysis by LC-MS
Parameters were calculated with standard calculations: PlasmaCL=DoseIV/AUCIVVSS=AUMCIV/AUCIV*PlasmaCL
With plasma CL = plasma clearance, AUCIV = area under the plasma concentration vs. time profile, VSS = apparent volume of distribution at steady state, AUMCIV = area under the first moment of the plasma concentration versus time profile from time zero to infinity after IV administration.
a Measured physicochemical and solubility data for WEHI-7326. […] Microsomal-predicted EH values are included.

134036 HGSOC PDX = test: HGSOC PDX model 134036; assay type: in vivo, NSG mice; settings: 134036 C5 platinum refractory PDX; 20 mg/kg i.v. biweekly, 6 weeks
Experimental: Two to three mm ovarian tumor fragments were subcutaneously engrafted in the left flank of NSG mice and monitored by physical palpation for tumor growth and engraftment. Engrafted tumors were measured twice a week using digital Vernier calipers and maximum tumor diameter + perpendicular tumor length were digitally recorded into the Study Director software (v 3.0/4.0 StudyLog). Tumor volume was calculated automatically (tumor volume (mm^3) = 0.5236 x [larger diameter (mm) x smaller diameter (mm)^2]). Mice were randomized to treatment once their tumor volume reach 180–300 mm^3 and tumor measurements were performed twice a week up to 120 days or when the tumor volume reaches 700 mm^3.
Time to progressive disease (PD): Defined as the time (in days) from beginning of treatment to an increase in average tumor volume of >20% from the nadir (taken as the smallest average tumor volume recorded since treatment started or 200 mm^3 if nadir was <200 mm^3 as lesions smaller than this are difficult to measure with accuracy). Median time to harvest (TTH): Defined as the time (in days) from the beginning of treatment to day of harvest at 700 mm^3 and the median TTH was calculated and plotted using Kaplan-Meier curves. Based on ref. [27]. […]

[2] = mouse, plasma, iv, male Swiss outbred mice, i.v. 15 mg/kg

In the case of COc1ccc(CNc2nc(NCc3ccc(CN)cc3)nc(NN3CC(=O)NC3=O)n2)cc1 [WEHI-7326], the “Adverse effects in treatment arm” value (24 T TNBC PDX; 24 T PDX mice, 20 mg/kg i.v. twice a week, n = 7) is reported as 1 sick, 1 found dead, 1 with back leg paralysis, the Survival time (24 T TNBC PDX; 24 T PDX, docetaxel 10 mg/kg i.p. once, WEHI-7326 20 mg/kg i.v. biweekly) is reported as 45 days and the Adverse reactions ([1]; Swiss outbred mice, i.v., up to a dose of 30 mg/kg) is reported as “no adverse reactions or compound-related side effects”. For the same compound, the clearance [1, 2] was 53 mL/min/kg, the half-life [1, 2] was 6.3 h and the Vd ([1]; mouse, plasma, iv, male Swiss outbred mice, i.v. 15 mg/kg, read-out: Apparent volume of distribution) was 4.7 L/kg. For the same compound, the Tumor response (134036 HGSOC PDX) was “completely unresponsive”.
